In ChEMBL document CHEMBL4507326, “Data for DCP probe TP-030-2” (2021):
Calls of active or inactive are those of the source. The rule behind the calls is not given here.

Experiments:
[1] = molecular target: Tyrosine-protein kinase Tec (Homo sapiens, UniProt P42680); test: TEC(TEC1CGD1) Takeda global kinase panel
[2] = molecular target: L-type calcium channel, dihydropyridine site (Cav1.2 alpha-1C) (Homo sapiens, UniProt Q13936); test: Inhibition of Calcium Channel L-Type, Dihydropyridine at 10 µM in the Eurofins-Panlabs radioligand binding assay (Eurofins_assay_214600); parameters: ligand concentration 0.1 nM, non-specific ligand with concentration 1 µM Nitrendipine, incubation time 90 min, incubation temperature 25 °C; conditions: Wistar, rat, rat cerebral cortex preparation, probe [3H] Nitrendipine; compound concentration 10 uM; target entry is the homologue from another species
[3] = GPCRScan assay: inhibition of GABA/PBR; parameters: species or system Rattus norvegicus; radioligand conc. used [nm] 0.3 – 2.0, parental cells brain tissue
[4] = molecular target: Death-associated protein kinase 3 (Homo sapiens, UniProt O43293); test: DAPK3(DAP3LGP1) Takeda global kinase panel
[5] = molecular target: Androgen receptor (Homo sapiens) (UniProt P10275); conditions: Compound concentration 10.0 uM
[6] = molecular target: Cyclin-G-associated kinase (Homo sapiens, UniProt O14976); test: GAK(GAK1PGF1) Takeda global kinase panel
[7] = molecular target: Sodium-dependent noradrenaline transporter (Homo sapiens) (UniProt P23975); conditions: Compound concentration 10.0 uM
[8] = molecular target: Muscarinic acetylcholine receptor M4 (Homo sapiens) (UniProt P08173); conditions: Compound concentration 10.0 uM
Activated CDC42 kinase 1 = Activated CDC42 kinase 1 (Homo sapiens, UniProt Q07912); test: Ack(TNK2LGF1) Takeda global kinase panel
[9] = molecular target: Cyclin-dependent kinase 1 (Homo sapiens, UniProt P06493); test: CDC2 [CDK1(CDK1CGS1)] Takeda global kinase panel
[10] = molecular target: Dual specificity protein kinase CLK1 (Homo sapiens, UniProt P49759); test: CLK1(CLK1LGF1) Takeda global kinase panel
[11] = molecular target: Casein kinase II subunit alpha' (Homo sapiens, UniProt P19784); test: CK2alpha2(C2A2LGK1) Takeda global kinase panel
[12] = molecular target: G protein-coupled receptor kinase 4 (Homo sapiens, UniProt P32298); test: GRK4(GRK4LGRI) Takeda global kinase panel
[13] = molecular target: Myosin light chain kinase (Homo sapiens, UniProt Q32MK0); test: caMLCK(MYL3LGF1) Takeda global kinase panel
[14] = molecular target: D(4) dopamine receptor (Homo sapiens) (UniProt P21917); conditions: Compound concentration 10.0 uM
[15] = molecular target: Receptor-interacting serine/threonine-protein kinase 1 (Homo sapiens, UniProt Q13546); test: TR-FRET (human RIPK1)
[16] = molecular target: Protein-tyrosine kinase 6 (Homo sapiens, UniProt Q13882); test: Brk(PTK6LGY1) Takeda global kinase panel
[17] = molecular target: Cyclin-dependent kinase 12 (Homo sapiens, UniProt Q9NYV4); test: CRK7(CD12PHS1) Takeda global kinase panel
[18] = molecular target: Alpha-2C adrenergic receptor (Homo sapiens) (UniProt P18825); conditions: Compound concentration 10.0 uM
[19] = molecular target: Phosphatidylinositol 4,5-bisphosphate 3-kinase catalytic subunit delta isoform (Homo sapiens, UniProt O00329); test: PI3KCD(PI3DCGRK) Takeda global kinase panel
SRSF protein kinase 1 = SRSF protein kinase 1 (Homo sapiens, UniProt Q96SB4); test: SRPK1(SRP1IHRL) Takeda global kinase panel
[20] = molecular target: Serine/threonine-protein kinase PAK 6 (Homo sapiens, UniProt Q9NQU5); test: PAK6(PAK6CGY1) Takeda global kinase panel
[21] = molecular target: D(3) dopamine receptor (Homo sapiens) (UniProt P35462); conditions: Compound concentration 10.0 uM
[22] = molecular target: Alpha-1B adrenergic receptor (Homo sapiens) (UniProt P35368); conditions: Compound concentration 10.0 uM
[23] = molecular target: Protein kinase C delta type (Homo sapiens, UniProt Q05655); test: PKCdelta(PRKDPFP1) Takeda global kinase panel
[24] = molecular target: Serine/threonine-protein kinase 26 (Homo sapiens, UniProt Q9P289); test: MST4(MST4LGC1) Takeda global kinase panel
[25] = molecular target: Alpha-1A adrenergic receptor (Homo sapiens) (UniProt P35348); conditions: Compound concentration 10.0 uM
[26] = molecular target: Mitogen-activated protein kinase 10 (Homo sapiens, UniProt P53779); test: JNK3(MP10LGF2) Takeda global kinase panel
[27] = molecular target: Serine/threonine-protein kinase LATS1 (Homo sapiens, UniProt O95835); test: LATS1(LAT1LGRJ) Takeda global kinase panel
[28] = molecular target: Peripheral plasma membrane protein CASK (Homo sapiens, UniProt O14936); test: CASK(CASKLGY1) Takeda global kinase panel
Ephrin type-B receptor 3 = Ephrin type-B receptor 3 (Homo sapiens, UniProt P54753); test: EphB3(EPB3LGRJ) Takeda global kinase panel
[29] = molecular target: STE20-related kinase adapter protein alpha (Homo sapiens, UniProt Q7RTN6); test: STLK5(STRAPHD1) Takeda global kinase panel
[30] = molecular target: Mitogen-activated protein kinase 13 (Homo sapiens, UniProt O15264); test: p38delta(MP13LGP1) Takeda global kinase panel
[31] = molecular target: Homeodomain-interacting protein kinase 2 (Homo sapiens, UniProt Q9H2X6); test: HIPK2(HIP2LGY1) Takeda global kinase panel
[32] = molecular target: D(2) dopamine receptor (Homo sapiens) (UniProt P14416); conditions: Compound concentration 10.0 uM
[33] = molecular target: Insulin-like growth factor 1 receptor (Homo sapiens, UniProt P08069); test: IGF1R(IGF1LGF1) Takeda global kinase panel
[34] = molecular target: Homeodomain-interacting protein kinase 4 (Homo sapiens, UniProt Q8NE63); test: HIPK4(HIP4LHY1) Takeda global kinase panel
[35] = molecular target: Histamine H2 receptor (Homo sapiens) (UniProt P25021); conditions: Compound concentration 10.0 uM
[36] = molecular target: Serine/threonine-protein kinase pim-3 (Homo sapiens, UniProt Q86V86); test: Pim3(PIM3LGP1) Takeda global kinase panel
Ephrin type-B receptor 4 = Ephrin type-B receptor 4 (Homo sapiens, UniProt P54760); test: EphB4(EPB4LGY1) Takeda global kinase panel
[37] = molecular target: Maternal embryonic leucine zipper kinase (Homo sapiens, UniProt Q14680); test: MELK(MELKLGF1) Takeda global kinase panel
[38] = molecular target: Glutamate NMDA receptor (Rattus norvegicus) (UniProt P35439+Q00959+Q00960+Q00961+Q62645+Q8VHN2+Q9R1M7); conditions: Compound concentration 10.0 uM
[39] = molecular target: Serine/threonine-protein kinase Nek1 (Homo sapiens, UniProt Q96PY6); test: Nek1(NEK1LGY1) Takeda global kinase panel
[40] = molecular target: Serine/threonine-protein kinase H1 (Homo sapiens, UniProt P11801); test: PSKH1(PSH1LGRH) Takeda global kinase panel
[41] = molecular target: Receptor tyrosine-protein kinase erbB-4 (Homo sapiens, UniProt Q15303); test: HER4(ERB4CGF1) Takeda global kinase panel

Sequence of Activated CDC42 kinase 1 (Q07912 whole entry): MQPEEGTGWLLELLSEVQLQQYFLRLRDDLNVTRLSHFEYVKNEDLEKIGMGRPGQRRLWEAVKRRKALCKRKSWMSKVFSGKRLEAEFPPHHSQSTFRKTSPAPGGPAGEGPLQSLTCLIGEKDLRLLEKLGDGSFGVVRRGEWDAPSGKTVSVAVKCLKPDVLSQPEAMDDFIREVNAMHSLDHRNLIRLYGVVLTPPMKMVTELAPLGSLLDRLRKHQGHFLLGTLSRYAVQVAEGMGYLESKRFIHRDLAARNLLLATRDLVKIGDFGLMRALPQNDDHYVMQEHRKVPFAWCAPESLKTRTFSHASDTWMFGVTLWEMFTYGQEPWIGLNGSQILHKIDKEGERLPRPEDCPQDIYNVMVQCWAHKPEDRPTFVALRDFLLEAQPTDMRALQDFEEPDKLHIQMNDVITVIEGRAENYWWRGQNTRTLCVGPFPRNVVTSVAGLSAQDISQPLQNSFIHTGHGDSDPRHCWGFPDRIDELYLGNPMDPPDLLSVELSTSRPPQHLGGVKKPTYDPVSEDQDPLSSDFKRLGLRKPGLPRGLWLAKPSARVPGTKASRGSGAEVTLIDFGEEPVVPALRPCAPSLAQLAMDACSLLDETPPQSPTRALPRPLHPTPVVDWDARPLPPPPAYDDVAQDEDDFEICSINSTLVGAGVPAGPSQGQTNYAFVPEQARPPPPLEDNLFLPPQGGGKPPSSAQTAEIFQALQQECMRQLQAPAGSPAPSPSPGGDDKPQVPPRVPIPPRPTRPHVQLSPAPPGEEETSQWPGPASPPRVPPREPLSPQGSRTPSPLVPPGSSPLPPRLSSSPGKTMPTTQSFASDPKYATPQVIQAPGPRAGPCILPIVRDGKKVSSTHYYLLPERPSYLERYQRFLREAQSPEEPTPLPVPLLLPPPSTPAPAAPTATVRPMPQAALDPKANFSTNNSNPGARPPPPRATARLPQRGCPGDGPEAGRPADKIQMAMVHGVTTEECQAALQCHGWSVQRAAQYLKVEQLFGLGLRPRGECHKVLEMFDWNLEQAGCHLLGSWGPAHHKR
Sequence of Sodium-dependent noradrenaline transporter (Homo sapiens) (P23975 whole entry): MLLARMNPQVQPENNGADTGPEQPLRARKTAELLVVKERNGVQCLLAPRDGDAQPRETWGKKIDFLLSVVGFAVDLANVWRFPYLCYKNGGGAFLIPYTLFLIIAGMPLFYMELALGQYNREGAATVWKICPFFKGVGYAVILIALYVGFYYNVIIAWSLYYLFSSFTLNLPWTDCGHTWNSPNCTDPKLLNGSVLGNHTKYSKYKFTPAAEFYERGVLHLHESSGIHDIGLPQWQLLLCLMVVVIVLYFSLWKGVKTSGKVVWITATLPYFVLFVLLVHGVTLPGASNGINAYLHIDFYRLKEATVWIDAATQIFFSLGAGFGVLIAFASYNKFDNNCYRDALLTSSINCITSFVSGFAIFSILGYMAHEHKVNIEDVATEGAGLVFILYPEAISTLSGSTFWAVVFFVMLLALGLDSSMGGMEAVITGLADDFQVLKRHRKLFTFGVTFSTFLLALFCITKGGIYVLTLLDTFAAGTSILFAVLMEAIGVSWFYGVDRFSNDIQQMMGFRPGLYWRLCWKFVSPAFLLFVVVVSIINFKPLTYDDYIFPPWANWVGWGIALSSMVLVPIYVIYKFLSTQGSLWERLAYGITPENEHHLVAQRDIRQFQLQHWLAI
Sequence of Dual specificity protein kinase CLK1 (P49759 whole entry): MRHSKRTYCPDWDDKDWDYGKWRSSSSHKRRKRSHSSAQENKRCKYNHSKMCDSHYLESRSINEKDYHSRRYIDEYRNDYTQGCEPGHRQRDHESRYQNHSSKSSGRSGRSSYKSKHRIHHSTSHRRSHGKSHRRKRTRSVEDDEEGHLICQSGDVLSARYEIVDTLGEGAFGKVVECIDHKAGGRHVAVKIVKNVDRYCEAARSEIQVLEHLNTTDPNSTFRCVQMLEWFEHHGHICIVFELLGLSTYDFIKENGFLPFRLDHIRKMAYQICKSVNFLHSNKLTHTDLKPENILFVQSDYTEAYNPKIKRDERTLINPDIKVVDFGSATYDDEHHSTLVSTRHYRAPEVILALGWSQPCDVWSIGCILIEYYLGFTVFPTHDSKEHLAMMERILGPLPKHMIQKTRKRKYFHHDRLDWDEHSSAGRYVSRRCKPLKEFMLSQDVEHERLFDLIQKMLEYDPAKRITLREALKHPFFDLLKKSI
Sequence of Serine/threonine-protein kinase LATS1 (O95835 whole entry): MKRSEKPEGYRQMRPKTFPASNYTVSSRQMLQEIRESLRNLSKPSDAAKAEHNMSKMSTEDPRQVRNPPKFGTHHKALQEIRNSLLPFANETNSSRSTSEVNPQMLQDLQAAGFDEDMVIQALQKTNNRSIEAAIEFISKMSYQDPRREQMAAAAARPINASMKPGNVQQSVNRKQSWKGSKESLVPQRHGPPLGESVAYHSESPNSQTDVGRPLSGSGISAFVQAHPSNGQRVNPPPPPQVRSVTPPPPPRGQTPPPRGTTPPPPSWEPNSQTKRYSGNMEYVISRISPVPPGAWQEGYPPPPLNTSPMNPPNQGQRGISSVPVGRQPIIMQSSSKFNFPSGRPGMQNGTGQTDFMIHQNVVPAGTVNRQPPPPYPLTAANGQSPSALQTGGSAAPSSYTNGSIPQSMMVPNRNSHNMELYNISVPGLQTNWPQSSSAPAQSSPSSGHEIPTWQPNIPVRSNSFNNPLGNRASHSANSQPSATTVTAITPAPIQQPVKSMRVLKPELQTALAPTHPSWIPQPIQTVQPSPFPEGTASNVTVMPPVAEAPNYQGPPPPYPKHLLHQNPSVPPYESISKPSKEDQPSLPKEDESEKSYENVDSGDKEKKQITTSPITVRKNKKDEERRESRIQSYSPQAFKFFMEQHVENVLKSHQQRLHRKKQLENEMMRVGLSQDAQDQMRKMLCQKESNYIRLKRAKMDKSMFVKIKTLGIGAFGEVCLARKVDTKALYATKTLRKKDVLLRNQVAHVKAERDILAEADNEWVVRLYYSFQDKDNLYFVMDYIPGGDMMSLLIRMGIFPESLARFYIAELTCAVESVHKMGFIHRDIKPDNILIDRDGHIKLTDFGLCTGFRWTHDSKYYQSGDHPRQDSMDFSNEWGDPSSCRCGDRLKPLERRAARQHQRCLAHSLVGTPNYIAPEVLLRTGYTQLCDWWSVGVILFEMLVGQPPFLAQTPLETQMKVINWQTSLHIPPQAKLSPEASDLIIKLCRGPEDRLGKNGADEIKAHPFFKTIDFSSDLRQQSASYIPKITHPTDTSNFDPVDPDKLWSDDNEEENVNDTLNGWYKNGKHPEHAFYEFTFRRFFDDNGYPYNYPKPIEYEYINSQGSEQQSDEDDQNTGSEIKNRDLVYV
Sequence of Peripheral plasma membrane protein CASK (O14936 whole entry): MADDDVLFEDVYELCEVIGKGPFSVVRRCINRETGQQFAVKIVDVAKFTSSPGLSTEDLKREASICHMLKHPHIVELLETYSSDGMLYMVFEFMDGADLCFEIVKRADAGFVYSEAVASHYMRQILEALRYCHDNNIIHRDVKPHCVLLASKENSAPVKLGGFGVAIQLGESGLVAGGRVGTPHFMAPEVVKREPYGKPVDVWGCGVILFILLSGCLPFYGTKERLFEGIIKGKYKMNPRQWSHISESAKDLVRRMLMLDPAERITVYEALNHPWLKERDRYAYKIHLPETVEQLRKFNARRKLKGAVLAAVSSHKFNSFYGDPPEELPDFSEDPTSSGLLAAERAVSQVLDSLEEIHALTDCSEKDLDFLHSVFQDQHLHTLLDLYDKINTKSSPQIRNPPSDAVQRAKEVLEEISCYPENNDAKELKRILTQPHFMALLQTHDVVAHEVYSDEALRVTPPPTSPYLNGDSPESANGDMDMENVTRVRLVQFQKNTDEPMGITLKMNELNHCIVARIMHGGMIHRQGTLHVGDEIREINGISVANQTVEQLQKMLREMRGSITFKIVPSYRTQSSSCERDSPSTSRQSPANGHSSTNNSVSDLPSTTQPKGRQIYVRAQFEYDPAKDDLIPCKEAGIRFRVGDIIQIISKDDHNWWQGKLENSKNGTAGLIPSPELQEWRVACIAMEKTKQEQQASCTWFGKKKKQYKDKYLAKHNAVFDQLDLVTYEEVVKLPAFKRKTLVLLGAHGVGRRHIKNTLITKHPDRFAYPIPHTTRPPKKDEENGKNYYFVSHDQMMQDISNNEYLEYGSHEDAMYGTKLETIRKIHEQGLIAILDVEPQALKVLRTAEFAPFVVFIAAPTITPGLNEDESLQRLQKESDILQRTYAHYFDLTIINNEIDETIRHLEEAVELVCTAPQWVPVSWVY
Sequence of Histamine H2 receptor (Homo sapiens) (P25021 whole entry): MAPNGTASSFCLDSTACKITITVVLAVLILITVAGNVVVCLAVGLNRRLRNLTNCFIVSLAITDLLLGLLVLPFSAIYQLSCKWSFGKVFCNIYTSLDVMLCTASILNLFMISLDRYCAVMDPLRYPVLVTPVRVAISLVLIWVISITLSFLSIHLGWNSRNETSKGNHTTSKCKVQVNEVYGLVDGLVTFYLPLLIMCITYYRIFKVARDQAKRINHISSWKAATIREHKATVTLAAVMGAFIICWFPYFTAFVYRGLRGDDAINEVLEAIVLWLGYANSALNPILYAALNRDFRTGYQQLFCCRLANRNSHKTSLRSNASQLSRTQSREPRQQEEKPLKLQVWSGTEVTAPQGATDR

For `CN1C(=O)[C@@H](N2CCc3c(nn(Cc4ccccc4)c3Br)C2=O)COc2ccccc21` [TP-030-2], the IC50 [1] was 1 µM, the inhibition at 90 min, 10 µM [2] was 29% (not active) and the Ki [3] was 0.347 µM. For the same compound, the pKi [3] was 6.465, the IC50 [4] was 1 µM and the inhibition [5] was 6%. For the same compound, the IC50 [6] was 1 µM, the inhibition [7] was -7.47% and the inhibition [8] was 11.7%. It also gave an IC50 (Activated CDC42 kinase 1) of 1 µM, an IC50 [9] of 1 µM and an IC50 [10] of 1 µM. It also gave an IC50 [11] of 1 µM, an IC50 [12] of 1 µM and an IC50 [13] of 1 µM. For the same compound, the inhibition [14] was 8.9%, the Ki [15] was 0.00043 µM (active) and the IC50 [16] was 1 µM. The IC50 [17] was 1 µM, the inhibition [18] was 71.3% and the IC50 [19] was 1 µM. The IC50 (SRSF protein kinase 1) was 1 µM, the IC50 [20] was 1 µM and the inhibition [21] was 14%. The inhibition [22] was -0.19%, the IC50 [23] was 1 µM and the IC50 [24] was 1 µM. For the same compound, the inhibition [25] was -4.83%, the IC50 [26] was 1 µM and the IC50 [27] was 1 µM. For the same compound, the IC50 [28] was 1 µM, the IC50 (Ephrin type-B receptor 3) was 1 µM and the IC50 [29] was 1 µM. It also gave an IC50 [30] of 1 µM, an IC50 [31] of 1 µM and an inhibition [32] of -5.95%. The IC50 [33] was 1 µM, the IC50 [34] was 1 µM and the inhibition [35] was -8%. The IC50 [36] was 1 µM, the IC50 (Ephrin type-B receptor 4) was 1 µM and the IC50 [37] was 1 µM. For the same compound, the inhibition [38] was 6%, the IC50 [39] was 1 µM and the IC50 [40] was 1 µM. It also gave an IC50 [41] of 1 µM.
